# Data reported in patent publication US12195760B2, “Method for enhancing proliferation capability of stem cells using ethionamide” (SAMSUNG LIFE PUBLIC WELFARE FOUNDATION, priority 2016, dated 2025).
# What was measured:
# [1] = test system: human umbilical cord mesenchymal stem cells
# Experimental: After 72 hours, cell proliferation analysis was performed. For this purpose, a BrdU cell proliferation assay kit (Cell Signaling Technology, USA) using 5-bromo-2′-deoxyuridine (BrdU) bound during DNA synthesis in cells was used. Specifically, BrdU was added to cells, and reacted for 24 hours. Thereafter, the cells were immobilized, and DNA was denatured. Then, the cells were treated with an anti-BrdU antibody, and then reacted with a tetramethylbenzidine (TMB) substrate using a secondary antibody conjugated with horse-radish peroxidase (HRP), and an absorbance value was measured at 450 nm using an ELISA reader.
# [2] = test system: human umbilical cord mesenchymal stem cells; conditions: ethionamide-primed MSCs compared to control not treated
# Experimental: More specifically, the human umbilical cord mesenchymal stem cells (2×10^5 cells) were equally divided into 1.5 ml microtubes, treated with 100 μL of phosphate-buffered saline (PBS) containing 2% FBS, treated with an antibody bound to fluorescein isothiocyanate (FITC), phycoerythrin (PE), or allophycocyanin (APC), and then reacted at room temperature for 20 minutes. […] After the reaction, an antibody reaction was neutralized with PBS containing 2% FBS, and it was then determined whether the positive and negative markers were expressed using a flow cytometer.
# [3] = test system: human umbilical cord mesenchymal stem cells; conditions: ethionamide-primed MSCs compared to control not treated; Oil red O, Alizarin Red S, Safranin-O; FIGS. 3A to 3C
# Experimental: Specifically, to induce differentiation into adipocytes or osteocytes, human umbilical cord mesenchymal stem cells (1×10^5 cells) cultured in a medium treated with ethionamide were seeded in a 6-well plate, and the differentiation was induced for approximately 3 weeks using adipogenesis/osteogenesis differentiation kits (Gibco, USA) while replacing the medium with a fresh medium twice a week. Thereafter, the cells differentiated into adipocytes and osteocytes were stained with Oil red O and Alizarin Red S to check whether the cells were differentiated into adipocytes and osteocytes. Quantification of the adipocytes was carried out by completely removing the medium from differentiation culture containers, drying the culture containers, putting 100% isopropanol into the culture containers, culturing the cells at room temperature for 10 minutes, thoroughly mixing the differentiated cells with 100% isopropanol, and measuring an absorbance at 500 nm to quantify the degree of differentiation. Quantification of the osteocytes was carried out by quantifying the degree of differentiation using an Alizarin Red S staining quantification assay kit (ScienCell, USA). […]
smiles,measurement,setting,value
"CCc1cc(C(N)=S)ccn1 [ethionamide, 2-ethylpyridine-4-carbothioamide]",proliferation rate according to treatment time,"[1]; 10 uM or 100 uM ethionamide, treated for 72 hours, FIG. 1B",most significantly enhanced
same,proliferation rate of the cells according to treatment concentration,"[1]; ethionamide at a concentration of 50 uM or more (tested 1 to 500 μM), 72 hours, BrdU absorbance 450 nm, FIG. 1A",significantly enhanced
same,"expression of positive markers CD44, CD73, CD90, CD105, CD166",[2]; FIG. 2A,expressed at a similar level
same,"expression of negative markers CD11b, CD14, CD19, CD34, CD45, HLA-DR",[2]; FIG. 2B,not expressed at a level similar to the control
same,"differentiation into adipocytes, osteocytes, and chondrocytes",[3],well differentiated
